Assay results: ChEMBL document CHEMBL4007462, “Chemical and bioactivity of flavanones obtained from roots of Dalea pazensis Rusby” (Bioorg Med Chem Lett, 2017)
Activity calls are given as the source filed them. The calls are words filed in the database; no cut-off is given here.

Experiments:
[1] = target: T1, Mushroom tyrosinase (Agaricus bisporus) (UniProt O42713+Q00024+C7FF04+C7FF05); test: Inhibition of mushroom tyrosinase at 10 uM using L-tyrosine as substrate preincubated for 10 mins followed by substrate addition measured after 20 mins by spectrophotometric method relative to control
[2] = target: T1, Mushroom tyrosinase (Agaricus bisporus); test: Inhibition of mushroom tyrosinase at 100 uM using L-tyrosine as substrate preincubated for 10 mins followed by substrate addition measured after 20 mins by spectrophotometric method relative to control
B16 = test: Inhibition of melanin formation from L-DOPA in mouse B16 cells preincubated for 24 hrs followed by L-DOPA addition and subsequent incubation for 20 mins measured at 1 min interval for 10 mins by MBTH reagent based spectrophotometric method; format: functional, cell-based
Mushroom tyrosinase = Mushroom tyrosinase (Agaricus bisporus, UniProt O42713+Q00024+C7FF04+C7FF05); test: Inhibition of mushroom tyrosinase using L-tyrosine as substrate preincubated for 10 mins followed by substrate addition measured after 20 mins by spectrophotometric method
Tyrosinase = target: T2, Tyrosinase (Mus musculus, UniProt P11344)
T2 sequence (P11344 whole entry): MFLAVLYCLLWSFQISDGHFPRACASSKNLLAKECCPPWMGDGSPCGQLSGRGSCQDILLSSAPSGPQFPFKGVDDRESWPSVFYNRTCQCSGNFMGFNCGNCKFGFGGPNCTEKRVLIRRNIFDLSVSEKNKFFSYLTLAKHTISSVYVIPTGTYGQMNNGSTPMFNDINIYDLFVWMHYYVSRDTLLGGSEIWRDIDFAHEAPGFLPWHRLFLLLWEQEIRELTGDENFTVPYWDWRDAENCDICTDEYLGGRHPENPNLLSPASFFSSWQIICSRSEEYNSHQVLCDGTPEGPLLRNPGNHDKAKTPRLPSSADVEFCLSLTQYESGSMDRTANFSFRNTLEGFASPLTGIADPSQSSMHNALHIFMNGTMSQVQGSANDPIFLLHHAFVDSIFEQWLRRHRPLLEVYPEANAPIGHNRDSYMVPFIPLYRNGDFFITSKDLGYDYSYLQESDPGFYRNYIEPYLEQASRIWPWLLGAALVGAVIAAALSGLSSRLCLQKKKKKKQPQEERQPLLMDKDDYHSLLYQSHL
Description: Inhibition of tyrosinase in mouse B16 cells assessed as reduction in melanin production measured after 24 hrs

in vitro = conditions: mouse, B16 cells
Description: Cytotoxicity against mouse B16 cells after 24 hrs by MTT assay

[3] = target: T3, Tyrosinase (Mus musculus) (UniProt P11344); test: Inhibition of intracellular tyrosinase activity in mouse B16 cells at 0.05 uM using L-DOPA as substrate preincubated for 24 hrs followed by substrate addition and subsequent incubation for 20 mins measured at 1 min interval for 10 mins by MBTH reagent based spectrophotometric method relative to control; format: cell-based
T3 sequence (whole entry): T2 sequence (P11344 whole entry)

[4] = target: T3, Tyrosinase (Mus musculus); test: Inhibition of intracellular tyrosinase activity in mouse B16 cells at 5 uM using L-DOPA as substrate preincubated for 24 hrs followed by substrate addition and subsequent incubation for 20 mins measured at 1 min interval for 10 mins by MBTH reagent based spectrophotometric method relative to control; format: cell-based

inhibition [1] | inhibition [2] | IC50 (Mushroom tyrosinase) | IC50 (Tyrosinase) | MNTC at 24 h (in vitro) | inhibition [3] | inhibition [4] | SMILES | inhibition (B16)
21.5% | 63.8% | 49.8 µM | 5 µM | 5 µM | – | – | C=CC(C)(C)c1cc(C2CC(=O)c3c(O)cc(O)c(CC=C(C)C)c3O2)c(OC)cc1O (stereo not drawn) | Active
0% | 0% | – | 5 µM | 50 µM | – | – | C=CC(C)(C)c1cc(C2CC(=O)c3c(cc(O)c(CC=C(C)C)c3O)O2)c(OC)cc1O (stereo not drawn) | Active
90.5% | 95% | 2.32 µM | 1 µM | 10 µM | 20.6% | 31.8% | C=CC(C)(C)c1cc(C2CC(=O)c3c(O)cc(O)c(CC=C(C)C)c3O2)c(O)cc1O (stereo not drawn) | –
2.84% | 9.4% | – | 0.75 µM | 1 µM | – | – | CC(C)=CCc1c(O)cc2c(c1O)C(=O)CC(c1ccc(O)c(O)c1CC=C(C)C)O2 (stereo not drawn) | Active
